{"source": "patent US20210378247A1", "about": "(priority 2018, published 2021)", "format_in_all_cases": "in vivo", "key": {"[1]": {"test_system": "Phakopsora pachyrhizi", "experiment": "Soybean detached leaf disk assay, soybean rust control", "conditions": "detached leaf disks, strains 1×10^8 CFU/mL, azoxystrobin 0.5 ppm", "protocol": "The susceptible soybean cultivar Williams 82 was used. Soybean plants were planted every 2 weeks and placed inside a growth chamber (Percival Scientific, Inc., Boone, Iowa) maintained at 75% relative humidity with a cycle of 14 h of light (350 μmol m^−2 s^−1 PAR) and 10 h of darkness at 24 and 23° C., respectively, for a constant supply of 2 to 3 week-old rust-free leaves. A mixture of P. pachyrhizi urediniospores obtained from infected soybean leaves collected from Gadsden County, Fla. in 2015 and 2016 was used in this experiment. The details of maintenance and increase of P. pachyrhizi urediniospores have been described elsewhere (Twizeyimana and Hartman 2010, Plant Dis. 94:1453-1460).\nLeaf disks (3.5-cm diameter each) were sprayed with 120 μL of each bacterial strain of interest (1×10^8 CFU/mL of sterile distilled water) using a fingertip sprayer (Container & Packaging Supply, Eagle, Id.) fitted to a 15 mL conical centrifuge tube (Fisher Scientific, Cat No. 14-59-53A). […]\nRust severity was scored by counting the number of sporulating uredinia in two arbitrarily selected 1-cm diameter circle of leaf tissue from an inoculated leaf disk (Table 7). Data was analyzed using analysis of variance (ANOVA) in PROC GLM of SAS (version 9.4; SAS Institute Inc., Cary, N.C.) and significant differences (P<0.05) were observed among treatments."}, "[2]": {"test_system": "Phytophthora infestans", "conditions": "late blight, tomato leaf disk; strains 1×10^8 CFU/ml, mefenoxam 5 ppm; severity assessed after 7 days"}, "[3]": {"test_system": "Colletotrichum sublineolum", "experiment": "Sorghum detached leaf assay, anthracnose disease control", "conditions": "strains 1×10^8 CFU/mL, pyraclostrobin 10 ppm, severity assessed after 7 days", "protocol": "Sorghum cultivar 12-GS9016-KS585 was grown in the greenhouse for a steady supply of leaf tissue for the bacterial strain evaluation. Fully expanded sorghum leaves from 4-6 weeks old plants were excised and cut into equal pieces, 2.5 cm wide. Colletotrichum sublineolum, (obtained from the Dr. Isakeit laboratory at Texas A&M University) was grown on 20% Oatmeal agar for 14 days. The actively growing culture was flooded with sterile distilled water, dislodging the spores. The concentration of the suspension was then adjusted to 1×10^6 spores/mL. Tween 20 was then added to the suspension to 0.05%.\nEach of the bacterial strains of interest was streaked onto Luria Bertani (LB) agar petri plates. A single colony was picked and placed in 50 ml of LB liquid medium or in liquid culture (CHA medium; per L, NaCl (5 g), tryptone (10 g), nutrient broth (8 g), CaCl2 (0.14 mM), MgCl2.6H2O (0.2 mM), and MnCl2.4H2O (0.01 mM)) in a 250-ml flask. […]\nAnthracnose severity was assessed on a scale of 0-4 after 7 days according to Prom, et al., 2016 (Plant Path J. 15(1): 11-16), with few modifications. […] Results (Table 4) were analyzed using analysis of variance (ANOVA) in JMP® (version 13.2.1; SAS Institute Inc., Cary, N.C.) and significant differences (P<0.05) were observed among bacterial strains."}, "[4]": {"test_system": "Podosphaera xanthii", "experiment": "Detached squash leaf disk assay, powdery mildew control", "conditions": "detached squash leaf disks, tebuconazole 10 ppm, incubated six days", "protocol": "Leaf disks of healthy squash leaves were excised and cut into uniform leaf disks 35 mm in diameter using a large cork borer. An experimental unit consisted of a single leaf disk, each treated with a suspension of the selected bacterium. Treatments included AgBiome strains AIP061382, AIP075655, and AIP029105, and control treatments. Controls were non-inoculated and inoculated leaf disks, and the synthetic fungicide tebuconazole at 10 ppm as a positive control. Bacterial strains were prepared as described in Example 2. Each leaf disk was sprayed with 200 μL of the treatment (bacterial suspension or synthetic fungicide) on the adaxial surface 24 hours before inoculation with the pathogen, Podosphaera xanthii (strain obtained from Dr. McGrath laboratory, Cornell University). After treatment with the fungicide, leaf disks were incubated in the dark for 24 hours at 23° C.\nLeaf disks were inoculated by spraying a 1×10^6 suspension of P. xanthii conidia on the treated leaf surface. Treatments were placed into sealed clear plastic boxes and incubated for six days at 25° C. with a relative humidity of 80% and a 12 hour photoperiod. […] The number of powdery mildew colonies were also recorded for each treatment. […] Data was analyzed in SAS JMP version 14.0."}, "[5]": {"test_system": "Mycosphaerella fijiensis", "experiment": "Grand Nain leaf piece assay, black sigatoka control", "conditions": "Grand Nain leaf pieces, strains 1×10^8 CFU/mL, mancozeb 10 ppm", "protocol": "The susceptible musa cultivar Grand Nain was used. Plants were maintained in the greenhouse for a constant supply of disease-free leaves. The inoculum used in this evaluation was a M. fijiensis culture obtained from the International of Tropical Agriculture (IITA), Ibadan, Nigeria and was maintained on V8 Juice agar.\nSmaller leaf pieces (4 cm long×3 cm wide) were cut from the excised leaf. Two leaf pieces were placed in plastic petri dishes with adaxial side on agar amended with 5 mg/liter gibberellic acid. Leaf pieces were sprayed with 120 μL of bacterial strain (1×10^8 CFU/mL of sterile distilled water) using a fingertip sprayer. Petri dishes with leaf pieces were incubated at room temperature in the dark for 24 h. Leaf pieces were then inoculated with a mycelial suspension of M. fijiensis, Mycelial fragments scraped from growing cultures were cut in smaller mycelial tips in sterile distilled (in 50 ml conical tubes) using a homogenizer (Omni International, Kennesaw, Ga.). […]\nData recorded was the most progressed stage on inoculated leaves at the time of data collection (there are six recognized stages for black sigatoka symptom development). Data was analyzed using analysis of variance (ANOVA) in PROC GLM of SAS (version 9.4; SAS Institute Inc., Cary, N.C.) and significant differences (P<0.05) were observed among treatments."}, "[6]": {"test_system": "Colletotrichum sublineolum", "experiment": "Greenhouse assay, sorghum anthracnose on sorghum plants", "conditions": "greenhouse sorghum plants cv. Seso3; strains 5 g/L sprayed weekly for three weeks", "protocol": "Sorghum plants (cv. Seso3) were planted in the greenhouse. Thirty five days post planting, the plants were treated with microbial strains (AIP029105, AIP075655 or AIP061382) at the rate of 5 g/L. Other treatments included inoculated check and a fungicide (Mancozeb). The treatments were arranged in a randomized complete block design with three replications, each consisting of three plants. The treatments were sprayed onto the plant until run off. Treatment with biocontrol was done weekly for three consecutive weeks.\nOne day post treatment, the plants were inoculated with a suspension of Colletotrichum sublineolum spores. The inoculum was prepared from a fungal isolate obtained from naturally infected sorghum in Eastern Uganda. The isolate was cultured on potato dextrose agar (PDA; Farm Eur. Laboratories Madrid, Spain), at 26-28° C. for two weeks to achieve sporulation. […]\nDisease incidence was carried out by observing individual plants for the appearance of anthracnose symptoms, starting at 7 days post inoculation, and thereafter on a weekly basis for five weeks. Any plant showing anthracnose symptoms was recorded and contributed to the overall number of infected plants (incidence) succumbing to the disease irrespective of the severity. […] Data was analyzed using analysis of variance (ANOVA) in JMP® (version 14.0.0; SAS Institute Inc., Cary, N.C.)."}}}
{"compound": "CO/C=C(/C(=O)OC)c1ccccc1Oc1cc(Oc2ccccc2C#N)ncn1", "note": "[Azoxystrobin]", "values": [{"measurement": "Percent Disease Control", "setting": "[1]", "result": 97.0, "unit": "%"}]}
{"compound": "COCC(=O)N(c1c(C)cccc1C)[C@H](C)C(=O)OC", "note": "[Mefenoxam]", "values": [{"measurement": "Percent Disease Control, Confirmation", "setting": "[2]", "result": 75.0, "unit": "%"}, {"measurement": "Percent Disease Control, Primary screen", "setting": "[2]", "result": 75.0, "unit": "%"}]}
{"compound": "COC(=O)N(OC)c1ccccc1COc1ccn(-c2ccc(Cl)cc2)n1", "note": "[Pyraclostrobin]", "values": [{"measurement": "Percent Disease Control, Confirmation", "setting": "[3]", "result": 97.1, "unit": "%"}, {"measurement": "Percent Disease Control, Primary screen", "setting": "[3]", "result": 96.2, "unit": "%"}]}
{"compound": "CC(C)(C)C(O)(CCc1ccc(Cl)cc1)Cn1cncn1", "note": "(centres unmarked) [Tebuconazole]", "values": [{"measurement": "Percent Disease Control", "setting": "[4]", "result": 67.0, "unit": "%"}]}
{"compound": "Mancozeb", "values": [{"measurement": "Percent Disease Control", "setting": "[5]", "result": 83.7, "unit": "%"}, {"measurement": "Percent Disease Control", "setting": "[6]", "result": 52.9, "unit": "a %"}]}
